Test results published in patent publication US11912701B2, “Protein kinase inhibitors for promoting liver regeneration or reducing or preventing hepatocyte death” (HEPAREGENIX GMBH, priority 2018, dated 2024).

Assays:
JNK1 [1] = molecular target: T1, JNK1 (Homo sapiens, UniProt P45983); assay: 33PanQinase enzyme assay, JNK1; format: biochemical; parameters: purchased ProQinase GmbH, Freiburg, Germany (33PanQinase Assay Service); details: ratio IC50(JNK1)/IC50(MKK4)
Method in brief: (§1)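 Off-target selectivity is the ratio IC50(off-target)/IC50(MKK4), with IC50 values from least-squares fitting and single-point data as % residual activity. Reactions of enzyme/substrate mix, ATP and compound ran 60 min at 30° C before H3PO4 stop; ^33P incorporation read on a scintillation counter.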
Target sequence in this assay (P45983 whole entry): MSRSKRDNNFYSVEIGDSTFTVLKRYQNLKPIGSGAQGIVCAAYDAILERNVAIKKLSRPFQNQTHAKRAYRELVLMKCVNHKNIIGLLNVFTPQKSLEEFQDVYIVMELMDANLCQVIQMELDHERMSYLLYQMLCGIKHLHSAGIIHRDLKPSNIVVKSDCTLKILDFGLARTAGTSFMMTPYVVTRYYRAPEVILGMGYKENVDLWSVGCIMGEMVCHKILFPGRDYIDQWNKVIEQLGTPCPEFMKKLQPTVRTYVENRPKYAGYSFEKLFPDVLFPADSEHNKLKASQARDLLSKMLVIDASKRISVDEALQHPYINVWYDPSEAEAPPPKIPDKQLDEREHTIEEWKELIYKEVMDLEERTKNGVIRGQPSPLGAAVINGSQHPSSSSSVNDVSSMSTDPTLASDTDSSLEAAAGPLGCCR

BRaf [2] = molecular target: T2, BRaf (Homo sapiens, UniProt P15056); assay: 33PanQinase enzyme assay, BRaf; format: biochemical; details: ratio IC50(BRaf)/IC50(MKK4)
T2 construct: purchased ProQinase GmbH, Freiburg, Germany (33PanQinase Assay Service)
T2 sequence (P15056 whole entry, species assumed): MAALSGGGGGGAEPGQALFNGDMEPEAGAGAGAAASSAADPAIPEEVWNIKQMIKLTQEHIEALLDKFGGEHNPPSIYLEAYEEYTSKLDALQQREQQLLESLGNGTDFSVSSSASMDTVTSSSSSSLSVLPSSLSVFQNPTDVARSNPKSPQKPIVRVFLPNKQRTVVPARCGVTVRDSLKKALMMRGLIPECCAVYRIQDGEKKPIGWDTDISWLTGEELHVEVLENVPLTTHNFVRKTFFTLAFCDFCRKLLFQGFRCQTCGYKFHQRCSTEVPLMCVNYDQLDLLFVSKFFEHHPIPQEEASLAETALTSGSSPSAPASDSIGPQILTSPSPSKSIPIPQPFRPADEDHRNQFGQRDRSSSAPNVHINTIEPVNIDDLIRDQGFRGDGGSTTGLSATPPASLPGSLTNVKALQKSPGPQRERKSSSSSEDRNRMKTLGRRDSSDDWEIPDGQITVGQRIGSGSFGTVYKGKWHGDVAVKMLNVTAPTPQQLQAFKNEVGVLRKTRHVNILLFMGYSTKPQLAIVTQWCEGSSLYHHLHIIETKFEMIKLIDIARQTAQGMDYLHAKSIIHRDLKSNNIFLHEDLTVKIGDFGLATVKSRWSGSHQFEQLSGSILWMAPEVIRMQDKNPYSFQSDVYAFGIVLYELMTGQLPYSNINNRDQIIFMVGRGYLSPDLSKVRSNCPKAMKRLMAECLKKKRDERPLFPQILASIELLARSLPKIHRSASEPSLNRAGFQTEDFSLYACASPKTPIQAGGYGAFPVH
Method in brief: as §1

JNK1 [3] = molecular target: T1, JNK1; assay: KINOMEscan competition binding assay, JNK1; parameters: M1/Q384; host or cells: HEK-293; details: ratio PoC (off-target)/PoC (MKK4)
Method in brief: (§2)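 DNA-tagged kinases expressed in HEK-293 cells compete between immobilized ligand on blocked beads and test compound at 100 nM; kinase retained on beads quantified by qPCR of the tag.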
Target sequence in this assay (P45983 1-384 isoform P45983-2): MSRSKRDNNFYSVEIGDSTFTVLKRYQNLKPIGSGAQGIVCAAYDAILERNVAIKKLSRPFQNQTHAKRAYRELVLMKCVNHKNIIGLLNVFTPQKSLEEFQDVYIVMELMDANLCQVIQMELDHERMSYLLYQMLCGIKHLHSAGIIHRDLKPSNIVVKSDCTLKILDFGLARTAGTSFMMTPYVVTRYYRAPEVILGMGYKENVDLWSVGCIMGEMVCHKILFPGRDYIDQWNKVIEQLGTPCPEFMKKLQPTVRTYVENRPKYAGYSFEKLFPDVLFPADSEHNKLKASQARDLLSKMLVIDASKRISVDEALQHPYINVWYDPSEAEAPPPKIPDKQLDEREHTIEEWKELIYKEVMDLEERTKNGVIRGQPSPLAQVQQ

MKK7 [4] = molecular target: T3, MKK7 (Homo sapiens, UniProt O14733); assay: 33PanQinase enzyme assay, MKK7; format: biochemical; parameters: purchased ProQinase GmbH, Freiburg, Germany (33PanQinase Assay Service); details: ratio IC50(MKK7)/IC50(MKK4)
T3 sequence (O14733 1-419): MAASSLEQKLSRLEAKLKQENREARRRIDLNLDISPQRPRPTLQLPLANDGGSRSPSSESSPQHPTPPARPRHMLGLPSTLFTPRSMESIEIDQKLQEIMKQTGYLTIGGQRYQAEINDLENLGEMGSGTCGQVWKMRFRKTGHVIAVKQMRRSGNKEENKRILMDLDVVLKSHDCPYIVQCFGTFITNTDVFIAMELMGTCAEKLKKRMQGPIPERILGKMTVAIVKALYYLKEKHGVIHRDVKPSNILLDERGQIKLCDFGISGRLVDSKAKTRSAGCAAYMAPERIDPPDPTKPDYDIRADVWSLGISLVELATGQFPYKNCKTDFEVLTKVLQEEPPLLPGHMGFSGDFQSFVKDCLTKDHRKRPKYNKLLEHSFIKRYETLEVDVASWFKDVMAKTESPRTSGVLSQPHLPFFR
Method in brief: as §1

BRaf [5] = molecular target: T2, BRaf; assay: KINOMEscan competition binding assay, BRaf; details: ratio PoC (off-target)/PoC (MKK4)
Method in brief: as §2

MKK4 [6] = molecular target: T4, MKK4 (Homo sapiens, UniProt P45985); assay: KINOMEscan competition binding assay, MKK4; details: residual percent of control binding (PoC) at 100 nM
T4 construct: S84/D399; host or cells: HEK-293
T4 sequence (P45985 84-399): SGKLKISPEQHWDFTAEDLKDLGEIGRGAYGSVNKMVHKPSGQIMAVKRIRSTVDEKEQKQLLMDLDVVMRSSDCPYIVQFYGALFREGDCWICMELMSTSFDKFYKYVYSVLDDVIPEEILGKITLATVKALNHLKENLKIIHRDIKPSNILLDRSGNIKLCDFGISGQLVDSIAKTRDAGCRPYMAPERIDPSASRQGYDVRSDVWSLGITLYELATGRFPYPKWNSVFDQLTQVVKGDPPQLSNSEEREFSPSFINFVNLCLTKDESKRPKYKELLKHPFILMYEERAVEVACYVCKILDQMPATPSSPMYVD
Method in brief: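 Tested at 100 nM and reported as percent of control binding (PoC). MKK4 was produced in HEK-293 cells and DNA-tagged. Displacement from ligand-coated, blocked beads was read by qPCR of eluted kinase.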

MKK4 [7] = molecular target: T5, MKK4 (Homo sapiens, UniProt P45985); assay: 33PanQinase enzyme assay, MKK4; format: biochemical; details: assay 'IC50'; read-out: Potency MKK4 (IC50)
T5 construct: purchased ProQinase GmbH, Freiburg, Germany (33PanQinase Assay Service)
T5 sequence (P45985 1-399): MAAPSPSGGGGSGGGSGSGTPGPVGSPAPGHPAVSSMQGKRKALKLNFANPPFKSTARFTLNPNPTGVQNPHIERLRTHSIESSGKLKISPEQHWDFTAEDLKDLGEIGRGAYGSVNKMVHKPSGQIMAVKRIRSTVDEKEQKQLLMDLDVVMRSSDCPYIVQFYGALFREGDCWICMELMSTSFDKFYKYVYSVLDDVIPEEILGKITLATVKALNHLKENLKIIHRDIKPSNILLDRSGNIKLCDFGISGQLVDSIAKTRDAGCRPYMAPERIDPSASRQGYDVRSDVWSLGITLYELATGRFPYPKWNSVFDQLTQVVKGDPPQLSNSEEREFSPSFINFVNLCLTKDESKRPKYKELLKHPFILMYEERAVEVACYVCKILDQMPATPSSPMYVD
Method in brief: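 Inhibition measured as 33Pi transfer to substrate after a 60-min, 30 °C reaction, acid-stopped and scintillation-counted.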

MKK7 [8] = molecular target: T3, MKK7; assay: KINOMEscan competition binding assay, MKK7; parameters: M1/R419; host or cells: HEK-293; details: ratio PoC (off-target)/PoC (MKK4)
Method in brief: as §2

| Selectivity JNK1, IC50(off-target)/IC50(MKK4) (JNK1 [1]) | Selectivity Braf, IC50(off-target)/IC50(MKK4) (BRaf [2]) | selectivity based on % Ctrl @100 nM vs. JNK1 (JNK1 [3]) | Selectivity IVIKK7, IC50(off-target)/IC50(MKK4) (MKK7 [4]) | selectivity based on % Ctrl @100 nM vs. Braf (BRaf [5]) | MKK4 [% Ctrl @ 100 nM (MKK4 [6]) | IC50 (MKK4 [7]) [nM] | selectivity based on % Ctrl @100 nM vs. MKK7 (MKK7 [8]) | Structure (SMILES) |
| --- | --- | --- | --- | --- | --- | --- | --- | --- |
| + (10 ≥ IC50(off-target)/IC50(MKK4) > 3) | ◯ (3 ≥ IC50(off-target)/IC50(MKK4)) | +++ (Ratio > 100) | +++ (IC50(off-target)/IC50(MKK4) > 100) | ++ (100 ≥ ratio > 10) | +++ (PoC < 1) | < 100 | +++ (Ratio > 100) | CCCS(=O)(=O)Nc1ccc(F)c(C(=O)c2c[nH]c3ncc(-c4ccc(C(=O)O)cc4)cc23)c1F [Example 108, 4-(3-(2,6-difluoro-3-(propylsulfonamido)benzoyl)-1H-pyrrolo[2,3-b]pyridin-5-yl)benzoic acid] |
| +++ (IC50(off-target)/IC50(MKK4) > 100) | +++ (IC50(off-target)/IC50(MKK4) > 100) | +++ (Ratio > 100) | +++ (IC50(off-target)/IC50(MKK4) > 100) | +++ (Ratio > 100) | +++ (PoC < 1) | < 100 | +++ (Ratio > 100) | CCCS(=O)(=O)Nc1c(F)ccc(C(=O)c2c[nH]c3ncc(-c4ccc(C(F)(F)F)nc4)cc23)c1F [Example 230, N-(2,6-difluoro-3-(5-(6-(trifluoromethyl)pyridin-3-yl)-1H-pyrrolo[2,3-b]pyridine-3-carbonyl)phenyl)propane-1-sulfonamide] |

More lines, now with the values behind:

| Structure (SMILES) | Selectivity JNK1, IC50(off-target)/IC50(MKK4) (JNK1 [1]) | Selectivity Braf, IC50(off-target)/IC50(MKK4) (BRaf [2]) | selectivity based on % Ctrl @100 nM vs. JNK1 (JNK1 [3]) | Selectivity IVIKK7, IC50(off-target)/IC50(MKK4) (MKK7 [4]) | selectivity based on % Ctrl @100 nM vs. Braf (BRaf [5]) | MKK4 [% Ctrl @ 100 nM (MKK4 [6]) | IC50 (MKK4 [7]) [nM] | selectivity based on % Ctrl @100 nM vs. MKK7 (MKK7 [8]) |
| --- | --- | --- | --- | --- | --- | --- | --- | --- |
| O=C(c1ccc(F)c(NS(=O)(=O)CCC(F)(F)F)c1F)c1c[nH]c2ncc(-c3cccnc3)cc12 [Example 156, N-(2,6-difluoro-3-(5-(pyridin-3-yl)-1H-pyrrolo[2,3-b]pyridine-3-carbonyl)phenyl)-3,3,3-trifluoropropane-1-sulfonamide] | +++ (IC50(off-target)/IC50(MKK4) > 100) | ++ (100 ≥ IC50(off-target)/IC50(MKK4) > 10) | +++ (Ratio > 100) | +++ (IC50(off-target)/IC50(MKK4) > 100) | +++ (Ratio > 100) | +++ (PoC < 1) | < 100 | +++ (Ratio > 100) |
| CCCS(=O)(=O)Nc1ccc(F)c(C(=O)c2c[nH]c3ncc(-c4cccc(OC)c4)cc23)c1F [Example 103, N-(2,4-difluoro-3-(5-(3-methoxyphenyl)-1H-pyrrolo[2,3-b]pyridine-3-carbonyl)phenyl)propane-1-sulfonamide] | + (10 ≥ IC50(off-target)/IC50(MKK4) > 3) | ◯ (3 ≥ IC50(off-target)/IC50(MKK4)) | ++ (100 ≥ ratio > 10) | +++ (IC50(off-target)/IC50(MKK4) > 100) | ◯ (3 ≥ Ratio) | + (3 ≤ PoC < 30) | 100 to 1000 | ++ (100 ≥ ratio > 10) |
| CCCS(=O)(=O)Nc1ccc(F)c(C(=O)c2c[nH]c3ncc(-c4ccc(N)nc4)cc23)c1F [Example 50] | ◯ (3 ≥ IC50(off-target)/IC50(MKK4)) | ◯ (3 ≥ IC50(off-target)/IC50(MKK4)) | +++ (Ratio > 100) | +++ (IC50(off-target)/IC50(MKK4) > 100) | ◯ (3 ≥ Ratio) | +++ (PoC < 1) | 100 to 1000 | +++ (Ratio > 100) |
| CCCS(=O)(=O)Nc1ccc(F)c(C(=O)c2c[nH]c3ncc(-c4ccc(S(C)(=O)=O)nc4)cc23)c1F [Example 77, N-(2,4-difluoro-3-(5-(6-(methylsulfonyl)pyridin-3-yl)-1H-pyrrolo[2,3-b]pyridine-3-carbonyl)phenyl)propane-1-sulfonamide] | + (10 ≥ IC50(off-target)/IC50(MKK4) > 3) | ◯ (3 ≥ IC50(off-target)/IC50(MKK4)) | +++ (Ratio > 100) | +++ (IC50(off-target)/IC50(MKK4) > 100) | ◯ (3 ≥ Ratio) | +++ (PoC < 1) | 100 to 1000 | +++ (Ratio > 100) |
| CCCS(=O)(=O)Nc1ccc(F)c(C(=O)c2c[nH]c3ncc(-c4ccc(C(F)(F)F)cc4)cc23)c1F [Example 106, N-(2,4-difluoro-3-(5-(4-(trifluoromethyl)phenyl)-1H-pyrrolo[2,3-b]pyridine-3-carbonyl)phenyl)propane-1-sulfonamide] | + (10 ≥ IC50(off-target)/IC50(MKK4) > 3) | ◯ (3 ≥ IC50(off-target)/IC50(MKK4)) | + (10 ≥ ratio > 3) | +++ (IC50(off-target)/IC50(MKK4) > 100) | ◯ (3 ≥ Ratio) | + (3 ≤ PoC < 30) | 100 to 1000 | + (10 ≥ ratio > 3) |
| CCCS(=O)(=O)Nc1c(F)ccc(C(=O)c2c[nH]c3ncc(-c4cnc(Cl)cn4)cc23)c1F [Example 211, N-(3-(5-(5-chloropyrazin-2-yl)-1H-pyrrolo[2,3-b]pyridine-3-carbonyl)-2,6-difluorophenyl)propane-1-sulfonamide] | ++ (100 ≥ IC50(off-target)/IC50(MKK4) > 10) | +++ (IC50(off-target)/IC50(MKK4) > 100) | +++ (Ratio > 100) | +++ (IC50(off-target)/IC50(MKK4) > 100) | +++ (Ratio > 100) | +++ (PoC < 1) | 100 to 1000 | +++ (Ratio > 100) |
| CCCS(=O)(=O)Nc1ccc(F)c(C(=O)c2c[nH]c3ncc(-c4cccc(O)c4)cc23)c1F [Example 101, N-(2,4-difluoro-3-(5-(3-hydroxyphenyl)-1H-pyrrolo[2,3-b]pyridine-3-carbonyl)phenyl)propane-1-sulfonamide] | ◯ (3 ≥ IC50(off-target)/IC50(MKK4)) | ◯ (3 ≥ IC50(off-target)/IC50(MKK4)) | ++ (100 ≥ ratio > 10) | +++ (IC50(off-target)/IC50(MKK4) > 100) | ◯ (3 ≥ Ratio) | ++ (1 ≤ PoC < 3) | 100 to 1000 | ++ (100 ≥ ratio > 10) |
